Results as given in paper PMC5891386 (Bioorganic & medicinal chemistry, 2018).

Experiments:
[1] = tested on: aspartate levels in cells; details: irrespective of PHGDH levels; cited from earlier work
PHGDH = details: cited from earlier work
[2] = Aqueous kinetic solubility; type: physicochemical; details: pH 7.4

Compound | efficacy in vivo (PHGDH) | Aqueous Solubility (kinetic) [2] | other results
Cc1cc(C)nc(NC(=S)N2CCN(c3ccc(C(F)(F)F)cn3)CC2)c1 [Compound 27, N-(4,6-dimethylpyridin-2-yl)-4-(5-(trifluoromethyl)pyridin-2-yl)piperazine-1-carbothioamide] | – | – | aspartate levels in cells [1]: reduce aspartate levels in cells
CCNC(=S)N/N=C/c1ccc(-c2ccc(C(=O)O)c(Cl)c2)o1 [PKUMDL-WQ-2201] | efficacious in vivo | – | –
Cc1cc(C)nc(NC(=S)N2CCC(Nc3cccc(C(F)(F)F)c3)CC2)c1 [Compound 37] | – | below the limits of quantitation | –
Cc1cc(C)nc(NC(=S)N2CCCC(Nc3ccc(C(F)(F)F)cc3)C2)c1 (centres unmarked) [Compound 33] | – | below the limits of quantitation | –
O=C(N/N=C/c1cc([N+](=O)[O-])ccc1O)c1ccc(O)cc1O [PKUMDL-WQ-2101] | efficacious in vivo | – | –
